Measurements from ChEMBL document CHEMBL2440076, “New triarylpyrazoles as broad-spectrum anticancer agents: design, synthesis, and biological evaluation” (Eur J Med Chem, 2013).

Experiments:
Type in all cases: functional
[1] = tested on: NCI-H23; experiment: Growth inhibition of human NCI-H23 cells assessed as cell growth at 5X10'-5 M after 48 hrs by sulforhodamine B assay; settings: NCI-H23, 48 h, read-out: Activity
[2] = tested on: MDA-MB-435; experiment: Growth inhibition of human MDA-MB-435 cells assessed as cell growth at 5X10'-8 M after 48 hrs by sulforhodamine B assay; settings: MDA-MB-435, 48 h, read-out: Activity
[3] = tested on: SN12C; experiment: Growth inhibition of human SN12C cells assessed as cell growth at 5X10'-6 M after 48 hrs by sulforhodamine B assay; settings: read-out: Activity
[4] = tested on: K562; experiment: Growth inhibition of human K562 cells assessed as cell growth at 5X10'-5 M after 48 hrs by sulforhodamine B assay; settings: K562, 48 h, read-out: Activity
[5] = tested on: NCI-H460; experiment: Growth inhibition of human NCI-H460 cells assessed as cell growth at 5X10'-9 M after 48 hrs by sulforhodamine B assay; settings: NCI-H460, 48 h, read-out: Activity
[6] = tested on: UACC-62; experiment: Growth inhibition of human UACC62 cells assessed as cell growth at 5X10'-5 M after 48 hrs by sulforhodamine B assay; settings: UACC-62, 48 h, read-out: Activity
[7] = Growth inhibition of human Hs 578T cells assessed as cell growth at 5X10'-6 M after 48 hrs by sulforhodamine B assay; settings: read-out: Activity
[8] = tested on: SK-MEL-5; experiment: Growth inhibition of human SK-MEL-5 cells assessed as cell growth at 5X10'-8 M after 48 hrs by sulforhodamine B assay; settings: SK-MEL-5, 48 h, read-out: Activity
[9] = Growth inhibition of human HCC2998 cells assessed as cell growth at 5X10'-6 M after 48 hrs by sulforhodamine B assay; settings: HCC 2998, 48 h, read-out: Activity
[10] = tested on: UACC-62; experiment: Growth inhibition of human UACC62 cells assessed as cell growth at 5X10'-8 M after 48 hrs by sulforhodamine B assay; settings: UACC-62, 48 h, read-out: Activity
[11] = tested on: SNB-19; experiment: Growth inhibition of human SNB19 cells assessed as cell growth at 5X10'-6 M after 48 hrs by sulforhodamine B assay; settings: SNB-19, 48 h, read-out: Activity
[12] = tested on: TK-10; experiment: Growth inhibition of human TK10 cells assessed as cell growth at 5X10'-9 M after 48 hrs by sulforhodamine B assay; settings: TK-10, 48 h, read-out: Activity
[13] = tested on: SK-MEL-5; experiment: Growth inhibition of human SK-MEL-5 cells assessed as cell growth at 5X10'-7 M after 48 hrs by sulforhodamine B assay; settings: SK-MEL-5, 48 h, read-out: Activity
[14] = tested on: SW-620; experiment: Growth inhibition of human SW620 cells assessed as cell growth at 5X10'-7 M after 48 hrs by sulforhodamine B assay; settings: SW-620, 48 h, read-out: Activity
[15] = tested on: BT-549; experiment: Growth inhibition of human BT549 cells assessed as cell growth at 5X10'-5 M after 48 hrs by sulforhodamine B assay; settings: BT-549, 48 h, read-out: Activity
[16] = tested on: SF-539; experiment: Growth inhibition of human SF539 cells assessed as cell growth at 5X10'-9 M after 48 hrs by sulforhodamine B assay; settings: SF-539, 48 h, read-out: Activity
[17] = tested on: Malme-3M; experiment: Growth inhibition of human MALME-3M cells assessed as cell growth at 5X10'-6 M after 48 hrs by sulforhodamine B assay; settings: read-out: Activity
[18] = tested on: HCT-116; experiment: Growth inhibition of human HCT116 cells assessed as cell growth at 5X10'-5 M after 48 hrs by sulforhodamine B assay; settings: HCT-116, 48 h, read-out: Activity
[19] = tested on: SK-MEL-28; experiment: Growth inhibition of human SK-MEL-28 cells assessed as cell growth at 5X10'-9 M after 48 hrs by sulforhodamine B assay; settings: SK-MEL-28, 48 h, read-out: Activity
[20] = tested on: COLO 205; experiment: Growth inhibition of human COLO205 cells assessed as cell growth at 5X10'-7 M after 48 hrs by sulforhodamine B assay; settings: COLO 205, 48 h, read-out: Activity
[21] = tested on: MOLT-4; experiment: Growth inhibition of human MOLT4 cells assessed as cell growth at 5X10'-9 M after 48 hrs by sulforhodamine B assay; settings: MOLT-4, 48 h, read-out: Activity
[22] = tested on: OVCAR-3; experiment: Growth inhibition of human OVCAR3 cells assessed as cell growth at 5X10'-5 M after 48 hrs by sulforhodamine B assay; settings: OVCAR-3, 48 h, read-out: Activity
[23] = tested on: HOP-62; experiment: Growth inhibition of human HOP62 cells assessed as cell growth at 5X10'-5 M after 48 hrs by sulforhodamine B assay; settings: HOP-62, 48 h, read-out: Activity
[24] = tested on: CAKI-1; experiment: Growth inhibition of human CAKI-1 cells assessed as cell growth at 5X10'-8 M after 48 hrs by sulforhodamine B assay; settings: CAKI-1, 48 h, read-out: Activity
[25] = tested on: SW-620; experiment: Growth inhibition of human SW620 cells assessed as cell growth at 5X10'-8 M after 48 hrs by sulforhodamine B assay; settings: SW-620, 48 h, read-out: Activity
[26] = tested on: NCI-H322M; experiment: Growth inhibition of human NCI-H322M cells assessed as cell growth at 5X10'-8 M after 48 hrs by sulforhodamine B assay; settings: read-out: Activity
[27] = tested on: M14; experiment: Growth inhibition of human M14 cells assessed as cell growth at 5X10'-6 M after 48 hrs by sulforhodamine B assay; settings: M14, 48 h, read-out: Activity
[28] = tested on: SW-620; experiment: Growth inhibition of human SW620 cells assessed as cell growth at 5X10'-9 M after 48 hrs by sulforhodamine B assay; settings: SW-620, 48 h, read-out: Activity
[29] = tested on: SK-OV-3; experiment: Growth inhibition of human SKOV3 cells assessed as cell growth at 5X10'-6 M after 48 hrs by sulforhodamine B assay; settings: SK-OV-3, 48 h, read-out: Activity
[30] = tested on: A498; experiment: Growth inhibition of human A498 cells assessed as cell growth at 5X10'-7 M after 48 hrs by sulforhodamine B assay; settings: A498, 48 h, read-out: Activity
[31] = tested on: TK-10; experiment: Growth inhibition of human TK10 cells assessed as cell growth at 5X10'-5 M after 48 hrs by sulforhodamine B assay; settings: TK-10, 48 h, read-out: Activity
[32] = tested on: SNB-19; experiment: Growth inhibition of human SNB19 cells assessed as cell growth at 5X10'-8 M after 48 hrs by sulforhodamine B assay; settings: SNB-19, 48 h, read-out: Activity
[33] = Growth inhibition of human NCI-ADR-RES cells assessed as cell growth at 5X10'-8 M after 48 hrs by sulforhodamine B assay; settings: read-out: Activity
[34] = Growth inhibition of human HCC2998 cells assessed as cell growth at 5X10'-5 M after 48 hrs by sulforhodamine B assay; settings: HCC 2998, 48 h, read-out: Activity
[35] = tested on: A549; experiment: Growth inhibition of human A549/ATCC cells assessed as cell growth at 5X10'-6 M after 48 hrs by sulforhodamine B assay; settings: A549, 48 h, read-out: Activity
[36] = Growth inhibition of human NCI-ADR-RES cells assessed as cell growth at 5X10'-9 M after 48 hrs by sulforhodamine B assay; settings: read-out: Activity
[37] = tested on: M14; experiment: Growth inhibition of human M14 cells assessed as cell growth at 5X10'-8 M after 48 hrs by sulforhodamine B assay; settings: M14, 48 h, read-out: Activity

## COc1cc(-c2nn(-c3cccc(NC(=O)Nc4ccc(Cl)c(Cl)c4)c3)cc2-c2ccncc2)ccc1Cl
[1]
  growth at 50 µM: -9%
[2]
  growth at 0.05 µM: 97%
[3]
  growth at 5 µM: 14%
[4]
  growth at 50 µM: 3%
[5]
  growth at 0.005 µM: 102%
[6]
  growth at 50 µM: -63%
[7]
  growth at 5 µM: 11%
[8]
  growth at 0.05 µM: 92%
[9]
  growth at 5 µM: 2%
[10]
  growth at 0.05 µM: 94%
[11]
  growth at 5 µM: 21%
[12]
  growth at 0.005 µM: 100%
[13]
  growth at 0.5 µM: 78%
[14]
  growth at 0.5 µM: 89%
[15]
  growth at 50 µM: -3%
[16]
  growth at 0.005 µM: 94%
[17]
  growth at 5 µM: -38%
[18]
  growth at 50 µM: 2%
[19]
  growth at 0.005 µM: 106%
[20]
  growth at 0.5 µM: 102%
[21]
  growth at 0.005 µM: 103%
[22]
  growth at 50 µM: -50%
[23]
  growth at 50 µM: -9%
[24]
  growth at 0.05 µM: 93%
[25]
  growth at 0.05 µM: 102%
[26]
  growth at 0.05 µM: 102%
[27]
  growth at 5 µM: -29%
[28]
  growth at 0.005 µM: 97%
[29]
  growth at 5 µM: 12%
[30]
  growth at 0.5 µM: 80%
[31]
  growth at 50 µM: -1%
[32]
  growth at 0.05 µM: 95%
[33]
  growth at 0.05 µM: 106%
[34]
  growth at 50 µM: -19%
[35]
  growth at 5 µM: 3%
[36]
  growth at 0.005 µM: 104%
[37]
  growth at 0.05 µM: 100%

## COc1cc(-c2nn(-c3cccc(NC(=O)Nc4cccc(C(F)(F)F)c4)c3)cc2-c2ccncc2)ccc1Cl
[1]
  growth at 50 µM: -37%
[2]
  growth at 0.05 µM: 97%
[3]
  growth at 5 µM: 12%
[4]
  growth at 50 µM: 1%
[5]
  growth at 0.005 µM: 100%
[6]
  growth at 50 µM: -87%
[7]
  growth at 5 µM: 4%
[8]
  growth at 0.05 µM: 95%
[9]
  growth at 5 µM: -23%
[10]
  growth at 0.05 µM: 94%
[11]
  growth at 5 µM: -8%
[12]
  growth at 0.005 µM: 94%
[13]
  growth at 0.5 µM: 78%
[14]
  growth at 0.5 µM: 79%
[15]
  growth at 50 µM: -26%
[16]
  growth at 0.005 µM: 95%
[17]
  growth at 5 µM: -44%
[18]
  growth at 50 µM: -16%
[19]
  growth at 0.005 µM: 100%
[20]
  growth at 0.5 µM: 93%
[21]
  growth at 0.005 µM: 94%
[22]
  growth at 50 µM: -54%
[23]
  growth at 50 µM: -32%
[24]
  growth at 0.05 µM: 98%
[25]
  growth at 0.05 µM: 94%
[26]
  growth at 0.05 µM: 92%
[27]
  growth at 5 µM: -54%
[28]
  growth at 0.005 µM: 98%
[29]
  growth at 5 µM: 16%
[30]
  growth at 0.5 µM: 73%
[31]
  growth at 50 µM: -7%
[32]
  growth at 0.05 µM: 97%
[33]
  growth at 0.05 µM: 97%
[34]
  growth at 50 µM: -79%
[35]
  growth at 5 µM: 3%
[36]
  growth at 0.005 µM: 99%
[37]
  growth at 0.05 µM: 97%

## COc1cc(-c2nn(-c3cccc(NC(=O)Nc4cc(C(F)(F)F)cc(C(F)(F)F)c4)c3)cc2-c2ccncc2)ccc1Cl
[1]
  growth at 50 µM: -59%
[2]
  growth at 0.05 µM: 98%
[3]
  growth at 5 µM: -16%
[4]
  growth at 50 µM: -16%
[5]
  growth at 0.005 µM: 99%
[6]
  growth at 50 µM: -72%
[7]
  growth at 5 µM: -12%
[8]
  growth at 0.05 µM: 95%
[9]
  growth at 5 µM: -70%
[10]
  growth at 0.05 µM: 93%
[11]
  growth at 5 µM: -9%
[12]
  growth at 0.005 µM: 94%
[13]
  growth at 0.5 µM: 74%
[14]
  growth at 0.5 µM: 69%
[15]
  growth at 50 µM: -57%
[16]
  growth at 0.005 µM: 88%
[17]
  growth at 5 µM: -47%
[18]
  growth at 50 µM: -67%
[19]
  growth at 0.005 µM: 101%
[20]
  growth at 0.5 µM: 93%
[21]
  growth at 0.005 µM: 104%
[22]
  growth at 50 µM: -78%
[23]
  growth at 50 µM: -95%
[24]
  growth at 0.05 µM: 95%
[25]
  growth at 0.05 µM: 95%
[26]
  growth at 0.05 µM: 103%
[27]
  growth at 5 µM: -29%
[28]
  growth at 0.005 µM: 98%
[29]
  growth at 5 µM: -39%
[30]
  growth at 0.5 µM: 59%
[31]
  growth at 50 µM: -86%
[32]
  growth at 0.05 µM: 91%
[33]
  growth at 0.05 µM: 106%
[34]
  growth at 50 µM: -88%
[35]
  growth at 5 µM: -31%
[36]
  growth at 0.005 µM: 105%
[37]
  growth at 0.05 µM: 107%
